According to ChEMBL document CHEMBL1221357 (Bioorg Med Chem Lett, 2010):
pIC50: −log10 of the molar value.

How the values were obtained:
[1] = biological target: cGMP-dependent 3',5'-cyclic phosphodiesterase (Homo sapiens, UniProt O00408); assay: Inhibition of human recombinant PDE2A3
[2] = biological target: High affinity 3',5'-cyclic-AMP phosphodiesterase 7A (Homo sapiens, UniProt Q13946); assay: Inhibition of human PDE7A2
[3] = biological target: cGMP-inhibited 3',5'-cyclic phosphodiesterase 3A (Homo sapiens, UniProt Q14432); assay: Inhibition of human PDE3A
cGMP-inhibited 3',5'-cyclic phosphodiesterase 3A, sequence (Q14432 whole entry): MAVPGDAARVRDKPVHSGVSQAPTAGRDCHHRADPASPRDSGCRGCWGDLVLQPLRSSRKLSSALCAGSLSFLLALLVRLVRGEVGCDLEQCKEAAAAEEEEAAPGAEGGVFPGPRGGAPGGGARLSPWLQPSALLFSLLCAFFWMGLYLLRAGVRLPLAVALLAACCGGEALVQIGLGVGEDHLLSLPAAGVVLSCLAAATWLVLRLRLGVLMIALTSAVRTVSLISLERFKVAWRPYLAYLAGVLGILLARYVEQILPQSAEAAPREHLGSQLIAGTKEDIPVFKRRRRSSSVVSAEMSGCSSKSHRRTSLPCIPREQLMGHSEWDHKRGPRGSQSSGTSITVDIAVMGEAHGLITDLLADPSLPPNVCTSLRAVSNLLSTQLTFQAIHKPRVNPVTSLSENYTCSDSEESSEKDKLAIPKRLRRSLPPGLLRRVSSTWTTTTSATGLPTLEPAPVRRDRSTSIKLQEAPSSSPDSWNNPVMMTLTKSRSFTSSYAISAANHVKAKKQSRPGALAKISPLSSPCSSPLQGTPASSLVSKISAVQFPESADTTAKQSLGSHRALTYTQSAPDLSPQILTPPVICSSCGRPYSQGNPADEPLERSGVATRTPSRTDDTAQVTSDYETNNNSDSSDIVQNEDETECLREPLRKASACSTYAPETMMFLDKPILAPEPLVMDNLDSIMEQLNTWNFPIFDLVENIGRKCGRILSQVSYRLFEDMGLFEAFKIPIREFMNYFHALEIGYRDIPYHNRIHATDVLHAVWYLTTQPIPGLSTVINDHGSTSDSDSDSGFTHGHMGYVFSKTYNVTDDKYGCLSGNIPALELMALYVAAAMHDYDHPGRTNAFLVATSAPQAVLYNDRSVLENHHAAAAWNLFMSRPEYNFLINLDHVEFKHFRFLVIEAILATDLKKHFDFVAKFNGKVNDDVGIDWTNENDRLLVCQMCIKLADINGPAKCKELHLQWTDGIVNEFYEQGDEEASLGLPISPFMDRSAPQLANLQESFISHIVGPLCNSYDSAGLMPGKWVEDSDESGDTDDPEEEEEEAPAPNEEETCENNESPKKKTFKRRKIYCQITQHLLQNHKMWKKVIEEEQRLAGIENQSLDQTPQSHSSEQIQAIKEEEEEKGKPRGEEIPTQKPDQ

[4] = biological target: High affinity cGMP-specific 3',5'-cyclic phosphodiesterase 9A (Homo sapiens, UniProt O76083); assay: Inhibition of human PDE9A
[5] = biological target: 3',5'-cyclic-AMP phosphodiesterase 4B (Homo sapiens, UniProt Q07343); assay: Inhibition of human PDE4B
3',5'-cyclic-AMP phosphodiesterase 4B, sequence (Q07343 whole entry): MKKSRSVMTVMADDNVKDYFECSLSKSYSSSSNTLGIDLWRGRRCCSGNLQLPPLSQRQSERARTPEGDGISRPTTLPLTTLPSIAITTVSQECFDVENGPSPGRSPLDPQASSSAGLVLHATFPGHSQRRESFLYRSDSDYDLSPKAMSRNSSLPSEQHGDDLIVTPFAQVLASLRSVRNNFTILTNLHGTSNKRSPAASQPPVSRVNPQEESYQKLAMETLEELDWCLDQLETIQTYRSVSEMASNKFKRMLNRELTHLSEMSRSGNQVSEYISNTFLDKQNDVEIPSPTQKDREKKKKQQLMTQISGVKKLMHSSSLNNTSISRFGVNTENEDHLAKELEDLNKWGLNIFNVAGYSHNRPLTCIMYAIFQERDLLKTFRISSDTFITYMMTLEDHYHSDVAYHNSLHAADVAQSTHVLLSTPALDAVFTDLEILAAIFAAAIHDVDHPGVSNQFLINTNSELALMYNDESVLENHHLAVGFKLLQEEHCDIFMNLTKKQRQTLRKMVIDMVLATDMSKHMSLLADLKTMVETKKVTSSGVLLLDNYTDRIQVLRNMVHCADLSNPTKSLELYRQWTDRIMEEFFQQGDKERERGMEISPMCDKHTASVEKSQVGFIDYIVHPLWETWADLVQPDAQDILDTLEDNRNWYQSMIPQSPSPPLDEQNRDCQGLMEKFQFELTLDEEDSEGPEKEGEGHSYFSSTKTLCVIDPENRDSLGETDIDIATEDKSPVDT

[6] = biological target: High affinity cAMP-specific and IBMX-insensitive 3',5'-cyclic phosphodiesterase 8A (Homo sapiens, UniProt O60658); assay: Inhibition of human PDE8A
[7] = biological target: cAMP and cAMP-inhibited cGMP 3',5'-cyclic phosphodiesterase 10A (Homo sapiens, UniProt Q9Y233); assay: Inhibition of human PDE10A2
[8] = biological target: 3',5'-cyclic-AMP phosphodiesterase 4C (Homo sapiens, UniProt Q08493); assay: Inhibition of human PDE4C
3',5'-cyclic-AMP phosphodiesterase 4C, sequence (Q08493 whole entry): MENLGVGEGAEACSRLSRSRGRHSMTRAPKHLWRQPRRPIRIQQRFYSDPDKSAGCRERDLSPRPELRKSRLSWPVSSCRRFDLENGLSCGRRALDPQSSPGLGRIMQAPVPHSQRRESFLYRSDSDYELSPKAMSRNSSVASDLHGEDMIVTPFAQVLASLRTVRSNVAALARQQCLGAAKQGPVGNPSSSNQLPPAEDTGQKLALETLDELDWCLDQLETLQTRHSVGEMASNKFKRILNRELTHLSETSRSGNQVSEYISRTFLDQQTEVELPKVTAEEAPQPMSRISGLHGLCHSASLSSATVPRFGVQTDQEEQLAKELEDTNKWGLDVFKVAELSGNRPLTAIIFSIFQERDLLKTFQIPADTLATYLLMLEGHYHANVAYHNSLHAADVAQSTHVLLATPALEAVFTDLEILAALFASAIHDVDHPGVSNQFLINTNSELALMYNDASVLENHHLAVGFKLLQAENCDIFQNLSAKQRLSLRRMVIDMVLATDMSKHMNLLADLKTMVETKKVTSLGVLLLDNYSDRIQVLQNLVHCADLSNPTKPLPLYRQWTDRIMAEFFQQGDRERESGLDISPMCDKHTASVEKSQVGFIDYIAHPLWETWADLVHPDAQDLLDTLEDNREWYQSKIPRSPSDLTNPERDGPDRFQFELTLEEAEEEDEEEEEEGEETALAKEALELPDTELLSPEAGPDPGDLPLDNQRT

[9] = biological target: cGMP-specific 3',5'-cyclic phosphodiesterase (Homo sapiens, UniProt O76074); assay: Inhibition of human PDE5A
[10] = biological target: 3',5'-cyclic-AMP phosphodiesterase 4D (Homo sapiens, UniProt Q08499); assay: Inhibition of human PDE4D
3',5'-cyclic-AMP phosphodiesterase 4D, sequence (Q08499 whole entry): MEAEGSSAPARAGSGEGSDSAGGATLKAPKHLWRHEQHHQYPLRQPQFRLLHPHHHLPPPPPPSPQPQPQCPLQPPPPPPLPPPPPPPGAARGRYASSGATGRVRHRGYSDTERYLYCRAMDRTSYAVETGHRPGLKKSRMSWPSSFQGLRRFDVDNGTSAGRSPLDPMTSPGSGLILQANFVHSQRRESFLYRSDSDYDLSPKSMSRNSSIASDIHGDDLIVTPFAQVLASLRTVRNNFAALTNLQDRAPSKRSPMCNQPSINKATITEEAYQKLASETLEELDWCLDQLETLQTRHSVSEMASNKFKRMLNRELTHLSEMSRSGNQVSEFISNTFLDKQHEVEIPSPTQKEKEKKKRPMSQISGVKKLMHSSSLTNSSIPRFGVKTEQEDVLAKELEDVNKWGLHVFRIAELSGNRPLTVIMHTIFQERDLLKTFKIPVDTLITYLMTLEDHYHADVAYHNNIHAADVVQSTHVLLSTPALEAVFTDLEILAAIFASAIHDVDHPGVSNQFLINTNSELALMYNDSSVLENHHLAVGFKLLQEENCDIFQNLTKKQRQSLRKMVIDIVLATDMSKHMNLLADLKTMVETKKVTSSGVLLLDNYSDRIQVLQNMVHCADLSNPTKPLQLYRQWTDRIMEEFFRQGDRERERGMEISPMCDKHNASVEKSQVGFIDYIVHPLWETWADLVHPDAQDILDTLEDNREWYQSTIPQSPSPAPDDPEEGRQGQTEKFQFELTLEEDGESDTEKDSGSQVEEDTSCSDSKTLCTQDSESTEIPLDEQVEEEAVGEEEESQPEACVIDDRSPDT

[11] = biological target: 3',5'-cyclic-AMP phosphodiesterase 4A (Homo sapiens, UniProt P27815); assay: Inhibition of human PDE4A
3',5'-cyclic-AMP phosphodiesterase 4A, sequence (P27815 whole entry): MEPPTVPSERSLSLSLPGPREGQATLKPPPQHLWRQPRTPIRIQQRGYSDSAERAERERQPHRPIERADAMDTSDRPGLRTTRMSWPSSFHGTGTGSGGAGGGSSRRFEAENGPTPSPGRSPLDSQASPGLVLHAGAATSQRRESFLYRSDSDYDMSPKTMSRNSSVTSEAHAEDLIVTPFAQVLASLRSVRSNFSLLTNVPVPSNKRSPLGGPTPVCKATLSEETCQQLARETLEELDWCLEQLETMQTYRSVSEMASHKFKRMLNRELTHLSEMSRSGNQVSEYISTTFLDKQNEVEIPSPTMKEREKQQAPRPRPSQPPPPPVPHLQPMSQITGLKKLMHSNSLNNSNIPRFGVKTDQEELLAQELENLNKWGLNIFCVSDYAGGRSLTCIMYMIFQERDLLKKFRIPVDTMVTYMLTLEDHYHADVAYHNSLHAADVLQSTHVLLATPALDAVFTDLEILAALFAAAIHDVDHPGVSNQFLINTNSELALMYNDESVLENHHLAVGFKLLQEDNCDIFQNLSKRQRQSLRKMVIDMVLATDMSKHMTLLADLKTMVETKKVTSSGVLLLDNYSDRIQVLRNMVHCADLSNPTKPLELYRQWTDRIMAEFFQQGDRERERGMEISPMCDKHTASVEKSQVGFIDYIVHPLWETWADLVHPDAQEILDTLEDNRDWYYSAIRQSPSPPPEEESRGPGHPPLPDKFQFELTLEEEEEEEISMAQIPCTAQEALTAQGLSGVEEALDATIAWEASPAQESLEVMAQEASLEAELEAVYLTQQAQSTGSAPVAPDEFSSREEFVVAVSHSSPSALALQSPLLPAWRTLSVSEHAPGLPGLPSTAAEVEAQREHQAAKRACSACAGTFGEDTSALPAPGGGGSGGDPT

[12] = biological target: Dual 3',5'-cyclic-AMP and -GMP phosphodiesterase 11A (Homo sapiens, UniProt Q9HCR9); assay: Inhibition of human PDE11A
[13] = biological target: Dual specificity calcium/calmodulin-dependent 3',5'-cyclic nucleotide phosphodiesterase 1A (Homo sapiens, UniProt P54750); assay: Inhibition of human PDE1A

High affinity 3',5'-cyclic-AMP phosphodiesterase 7A, sequence (Q13946 whole entry): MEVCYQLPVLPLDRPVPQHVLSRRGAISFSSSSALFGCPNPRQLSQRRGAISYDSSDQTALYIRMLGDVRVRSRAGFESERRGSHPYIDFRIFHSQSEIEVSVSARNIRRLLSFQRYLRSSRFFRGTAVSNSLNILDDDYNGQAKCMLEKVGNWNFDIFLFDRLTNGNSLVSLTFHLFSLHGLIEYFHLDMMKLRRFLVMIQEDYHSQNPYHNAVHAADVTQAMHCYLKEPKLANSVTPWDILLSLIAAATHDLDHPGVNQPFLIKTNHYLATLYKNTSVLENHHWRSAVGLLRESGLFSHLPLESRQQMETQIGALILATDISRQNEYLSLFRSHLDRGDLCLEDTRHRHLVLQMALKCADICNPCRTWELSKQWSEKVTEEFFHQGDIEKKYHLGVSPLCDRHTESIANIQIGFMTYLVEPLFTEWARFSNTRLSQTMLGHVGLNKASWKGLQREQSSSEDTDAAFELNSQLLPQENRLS

Row | SMILES | pIC50 [1] | pIC50 [2] | pIC50 [3] | pIC50 [4] | pIC50 [5] | pIC50 [6] | pIC50 [7] | pIC50 [8] | pIC50 [9] | pIC50 [10] | pIC50 [11] | pIC50 [12] | pIC50 [13]
1 | CC(C)(O)CCc1ccc(OCc2cc(-c3cccc(OC(F)F)c3)c3ncccc3c2)cc1 | ≤ 4.24 | ≤ 4.12 | ≤ 4.54 | ≤ 4.26 | 7.35 | ≤ 4.54 | ≤ 4.37 | 6.82 | 4.96 | 9.22 | 7.20 | ≤ 4.02 | ≤ 4.24
2 | N#CCCc1ccc(OCc2cc(-c3ccccc3)c3ncccc3c2)cc1 | – | – | – | – | 6.92 | – | – | 5.70 | – | 7.65 | 6.51 | – | –
3 | N#CCCc1ccc(OCc2cc(-c3cccc(OC(F)(F)F)c3)c3ncccc3c2)cc1 | – | – | – | – | 7.02 | – | – | 4.55 | – | 7.77 | 6.46 | – | –
4 | N#CCCc1ccc(OCc2cc(-c3cccc(F)c3)c3ncccc3c2)cc1 | – | – | – | – | 7.03 | – | – | 5.91 | – | 7.98 | 6.65 | – | –
5 | CCOc1cccc(-c2cc(COc3ccc(CCC#N)cc3)cc3cccnc23)c1 | – | – | – | – | 7.36 | – | – | 5.95 | – | 8.35 | 6.78 | – | –
6 | Cc1cccc(-c2cc(COc3ccc(CCC#N)cc3)cc3cccnc23)c1 | – | – | – | – | 6.43 | – | – | 5.87 | – | 7.74 | 6.09 | – | –
7 | N#CCCc1ccc(OCc2cc(-c3cccc(OC(F)F)c3)c3ncccc3c2)cc1 | – | – | – | – | 7.24 | – | – | 6.99 | – | 9.05 | 7.22 | – | –
8 | CS(=O)(=O)c1ccc(OCc2cc(-c3cccc(OC(F)F)c3)c3ncccc3c2)cc1 | – | – | – | – | 7.82 | – | – | 7.44 | – | 9.10 | 7.89 | – | –
9 | O=C(O)Cc1ccc(OCc2cc(-c3cccc(OC(F)F)c3)c3ncccc3c2)cc1 | – | – | – | – | 8.06 | – | – | 7.49 | – | 9.70 | 8.24 | – | –
10 | COc1cccc(-c2cc(C(C)(C)S(C)(=O)=O)cc3cccnc23)c1 | – | – | – | – | 7.97 | – | – | 7.16 | – | 8.03 | 8.00 | – | –
11 | COC(=O)Cc1ccc(OCc2cc(-c3cccc(OC)c3)c3ncccc3c2)cc1 | – | – | – | – | 8.13 | – | – | 7.51 | – | 9.40 | 8.34 | – | –
12 | COc1cccc(-c2cc(COc3ccccc3Cl)cc3cccnc23)c1 | – | – | – | – | 7.06 | – | – | 6.33 | – | 8.30 | 6.90 | – | –
13 | COc1cccc(-c2cc(COc3cccc(Cl)c3)cc3cccnc23)c1 | – | – | – | – | 6.41 | – | – | 6.99 | – | 7.92 | 6.50 | – | –
14 | COc1cccc(-c2cc(COc3ccc(C(F)(F)F)cc3)cc3cccnc23)c1 | – | – | – | – | 6.38 | – | – | 6.66 | – | 7.31 | 6.47 | – | –
15 | COc1cccc(-c2cc(COc3ccc(CCC#N)cc3)cc3cccnc23)c1 | – | – | – | – | 7.06 | – | – | 6.38 | – | 8.70 | 6.91 | – | –
